# Measurements published in ChEMBL document CHEMBL1201862, “PubChem BioAssay data set” (2004).
# Activity calls are given as the source filed them.
# Tests used:
# [1] = target: T1, Carboxy-terminal domain RNA polymerase II polypeptide A small phosphatase 1 (Homo sapiens, UniProt Q9GZU7); experiment: inhibitors of CTDSP1, concentration-response testing, biochemical assay, absorbance-based, actives from ultra-high-throughput screening (AID 540297); type: functional
# T1 sequence (Q9GZU7 whole entry): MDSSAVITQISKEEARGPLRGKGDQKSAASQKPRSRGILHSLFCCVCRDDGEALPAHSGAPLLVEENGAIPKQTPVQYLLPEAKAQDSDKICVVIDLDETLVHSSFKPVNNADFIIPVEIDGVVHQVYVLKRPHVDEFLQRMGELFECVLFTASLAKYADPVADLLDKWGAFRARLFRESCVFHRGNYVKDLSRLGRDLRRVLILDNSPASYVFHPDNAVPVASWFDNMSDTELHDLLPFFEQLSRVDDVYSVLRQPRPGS
# [2] = target: T2, Methionyl-tRNA synthetase, putative (Trypanosoma brucei brucei, UniProt Q38C91); type: functional, Trypanosoma brucei brucei strain 927/4 GUTat10.1
# T2 sequence (Q38C91 whole entry): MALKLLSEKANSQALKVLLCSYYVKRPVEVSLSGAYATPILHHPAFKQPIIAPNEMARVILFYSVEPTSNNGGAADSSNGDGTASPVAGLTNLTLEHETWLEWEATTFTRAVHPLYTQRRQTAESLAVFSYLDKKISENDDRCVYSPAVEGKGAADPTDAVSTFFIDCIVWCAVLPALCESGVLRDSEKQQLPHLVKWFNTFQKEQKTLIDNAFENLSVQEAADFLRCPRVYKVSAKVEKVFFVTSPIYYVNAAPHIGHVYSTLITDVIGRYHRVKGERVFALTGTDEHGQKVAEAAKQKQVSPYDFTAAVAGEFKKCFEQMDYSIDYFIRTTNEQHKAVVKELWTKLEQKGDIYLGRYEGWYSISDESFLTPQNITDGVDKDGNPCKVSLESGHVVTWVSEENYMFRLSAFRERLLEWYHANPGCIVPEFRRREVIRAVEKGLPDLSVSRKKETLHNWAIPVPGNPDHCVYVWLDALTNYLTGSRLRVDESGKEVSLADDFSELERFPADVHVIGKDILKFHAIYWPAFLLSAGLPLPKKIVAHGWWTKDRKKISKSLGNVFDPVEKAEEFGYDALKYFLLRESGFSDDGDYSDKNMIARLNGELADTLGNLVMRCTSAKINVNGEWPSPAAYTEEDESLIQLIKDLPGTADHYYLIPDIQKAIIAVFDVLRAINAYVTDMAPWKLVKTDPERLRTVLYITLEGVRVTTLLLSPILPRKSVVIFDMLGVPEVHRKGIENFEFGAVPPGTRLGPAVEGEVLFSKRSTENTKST
# [3] = target: T2, Methionyl-tRNA synthetase, putative; type: functional, Trypanosoma brucei brucei strain 927/4 GUTat10.1; remark: listed apart in the source
# [4] = Counterscreen for inhibitors of Trypanosoma brucei methionyl tRNA synthetase (MetRS): Luminescence-based cell-based high throughput dose response assay to identify compounds that are cytotoxic to Jurkat human T lymphocyte cells.; type: functional
# [5] = HEp-2 cell cytotoxicity, dose response, cytotoxicity control for RSV inhibitor project, HTS (AID 2410); type: functional; settings: human respiratory syncytial virus
# [6] = target: Low molecular weight phosphotyrosine protein phosphatase (Homo sapiens, UniProt P24666); type: functional; settings: read-out: IC50_Mean;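 note: Dose-response confirmation assay measuring inhibition of LMPTP enzyme activity by fluorescence intensity read-out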
# Chain of Low molecular weight phosphotyrosine protein phosphatase (P24666 whole entry): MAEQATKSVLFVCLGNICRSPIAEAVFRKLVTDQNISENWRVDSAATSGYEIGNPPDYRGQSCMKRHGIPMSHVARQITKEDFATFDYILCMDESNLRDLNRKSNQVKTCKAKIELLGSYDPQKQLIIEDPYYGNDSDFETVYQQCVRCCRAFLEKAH
# [7] = target: Luciferin 4-monooxygenase (Photinus pyralis, UniProt P08659); experiment: firefly luciferase enzyme inhibitors, dose response, biochemical, luminescence (AID 1891)
# Chain of Luciferin 4-monooxygenase (P08659 whole entry): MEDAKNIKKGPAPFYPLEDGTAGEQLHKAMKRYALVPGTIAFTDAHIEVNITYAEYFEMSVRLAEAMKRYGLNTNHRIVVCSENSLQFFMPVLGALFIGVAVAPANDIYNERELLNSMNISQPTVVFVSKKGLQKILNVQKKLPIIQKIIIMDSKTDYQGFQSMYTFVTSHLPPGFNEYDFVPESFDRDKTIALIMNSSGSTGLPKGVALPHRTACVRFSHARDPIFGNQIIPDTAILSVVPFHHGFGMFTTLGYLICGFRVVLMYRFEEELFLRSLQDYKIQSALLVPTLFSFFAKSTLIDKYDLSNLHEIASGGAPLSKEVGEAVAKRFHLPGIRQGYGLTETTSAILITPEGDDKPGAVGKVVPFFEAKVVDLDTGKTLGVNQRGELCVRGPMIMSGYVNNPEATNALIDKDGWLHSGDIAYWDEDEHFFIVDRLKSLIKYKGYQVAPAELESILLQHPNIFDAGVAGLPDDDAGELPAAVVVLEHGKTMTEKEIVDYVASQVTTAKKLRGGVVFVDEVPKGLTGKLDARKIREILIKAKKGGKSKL
# [8] = Luminescence Cell-Based Dose Confirmation HTS to Identify Inhibitors of Platelet Dense Granule Release. [Related pubchem assays: 1663 (Primary HTS), 1678 (Summary of Project)]; type: functional
# [9] = target: Dual specificity protein phosphatase 3 (Homo sapiens, UniProt P51452); experiment: VHR phosphatase inhibition, dose response, selectivity assay for STEP inhibitor project, biochemical (AID 602374); type: functional; settings: read-out: IC50_Mean
# Chain of Dual specificity protein phosphatase 3 (P51452 whole entry): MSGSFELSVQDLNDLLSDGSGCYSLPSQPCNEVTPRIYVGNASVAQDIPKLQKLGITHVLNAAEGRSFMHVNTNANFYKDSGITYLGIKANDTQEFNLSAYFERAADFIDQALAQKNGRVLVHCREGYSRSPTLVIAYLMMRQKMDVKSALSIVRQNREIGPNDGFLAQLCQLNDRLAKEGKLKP
# [10] = target: Tyrosine-protein phosphatase non-receptor type 11 (Homo sapiens, UniProt Q06124); experiment: SHP2 phosphatase inhibition, dose response, selectivity assay for STEP inhibitor project, biochemical (AID 602367); type: functional; settings: read-out: IC50_Mean
# Chain of Tyrosine-protein phosphatase non-receptor type 11 (Q06124 whole entry): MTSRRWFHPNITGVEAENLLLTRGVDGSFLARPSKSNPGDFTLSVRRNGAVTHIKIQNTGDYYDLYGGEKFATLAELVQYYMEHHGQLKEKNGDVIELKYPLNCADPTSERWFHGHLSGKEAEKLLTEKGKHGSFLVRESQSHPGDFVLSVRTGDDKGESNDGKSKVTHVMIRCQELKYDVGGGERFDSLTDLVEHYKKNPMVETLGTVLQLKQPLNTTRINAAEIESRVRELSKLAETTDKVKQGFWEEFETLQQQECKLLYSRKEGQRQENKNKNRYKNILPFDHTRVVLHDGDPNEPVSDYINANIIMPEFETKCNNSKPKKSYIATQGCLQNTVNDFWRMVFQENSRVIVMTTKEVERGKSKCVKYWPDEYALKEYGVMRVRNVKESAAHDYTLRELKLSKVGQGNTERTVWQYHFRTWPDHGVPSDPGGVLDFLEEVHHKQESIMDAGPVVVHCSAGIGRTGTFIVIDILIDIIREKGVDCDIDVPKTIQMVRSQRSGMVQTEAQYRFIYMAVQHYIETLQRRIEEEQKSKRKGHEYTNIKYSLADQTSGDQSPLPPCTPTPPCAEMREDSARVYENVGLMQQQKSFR
# [11] = target: Tyrosine-protein phosphatase non-receptor type 5 (Homo sapiens, UniProt P54829); experiment: STEP phosphatase inhibitors, confirmation, biochemical, fluorescence intensity, uHTS hits (AID 602372); type: functional; settings: read-out: IC50_Mean
# Chain of Tyrosine-protein phosphatase non-receptor type 5 (P54829 whole entry): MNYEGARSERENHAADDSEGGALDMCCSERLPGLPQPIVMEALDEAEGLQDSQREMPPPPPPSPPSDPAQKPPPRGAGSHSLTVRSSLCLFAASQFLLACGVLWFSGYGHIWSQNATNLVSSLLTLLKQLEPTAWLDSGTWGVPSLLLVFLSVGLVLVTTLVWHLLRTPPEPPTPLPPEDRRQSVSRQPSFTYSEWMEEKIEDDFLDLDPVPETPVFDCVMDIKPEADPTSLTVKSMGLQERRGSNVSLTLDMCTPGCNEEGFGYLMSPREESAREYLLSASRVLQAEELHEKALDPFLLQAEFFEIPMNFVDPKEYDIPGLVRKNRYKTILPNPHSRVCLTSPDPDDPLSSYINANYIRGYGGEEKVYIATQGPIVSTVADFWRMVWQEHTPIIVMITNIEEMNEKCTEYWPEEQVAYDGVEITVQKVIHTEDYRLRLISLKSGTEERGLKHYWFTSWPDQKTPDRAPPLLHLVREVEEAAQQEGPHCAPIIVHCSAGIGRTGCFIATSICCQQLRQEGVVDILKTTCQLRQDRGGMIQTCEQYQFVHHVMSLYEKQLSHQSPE
# Caspase-3 = target: T3, Caspase-3 (Homo sapiens, UniProt P42574); experiment: Dose-response confirmation of uHTS inhibitor hits of Sentrin-Specific Protease 8 in a Caspase-3 Fluorescence assay.; type: functional
# T3 sequence (P42574 whole entry): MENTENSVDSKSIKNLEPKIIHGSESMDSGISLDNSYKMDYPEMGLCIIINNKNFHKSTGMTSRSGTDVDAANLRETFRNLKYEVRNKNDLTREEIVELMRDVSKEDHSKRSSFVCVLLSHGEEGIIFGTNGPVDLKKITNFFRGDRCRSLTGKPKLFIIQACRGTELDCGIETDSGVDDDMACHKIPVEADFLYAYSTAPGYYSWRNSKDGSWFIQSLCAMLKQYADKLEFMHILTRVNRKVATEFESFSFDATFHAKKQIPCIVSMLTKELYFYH
# [12] = target: T4, Sentrin-specific protease 8 (Homo sapiens, UniProt Q96LD8); type: functional
# T4 sequence (Q96LD8 whole entry): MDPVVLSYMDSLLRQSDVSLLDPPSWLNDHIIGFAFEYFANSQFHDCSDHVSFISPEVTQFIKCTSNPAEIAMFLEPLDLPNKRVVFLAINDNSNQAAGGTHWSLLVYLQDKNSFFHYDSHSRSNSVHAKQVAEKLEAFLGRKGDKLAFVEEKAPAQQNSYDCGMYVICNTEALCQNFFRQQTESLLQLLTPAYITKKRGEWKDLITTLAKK
# [13] = target: T4, Sentrin-specific protease 8; type: functional; remark: listed apart in the source
# [14] = target: T5, Microphthalmia-associated transcription factor (Homo sapiens, UniProt O75030); experiment: TRPM1 promoter luciferase signal decrease, dose response, MITF inhibitor project, cell-based, SK-MEL-5, cherry-picked, set 3 (AID 493073); type: functional
# T5 sequence (O75030 whole entry): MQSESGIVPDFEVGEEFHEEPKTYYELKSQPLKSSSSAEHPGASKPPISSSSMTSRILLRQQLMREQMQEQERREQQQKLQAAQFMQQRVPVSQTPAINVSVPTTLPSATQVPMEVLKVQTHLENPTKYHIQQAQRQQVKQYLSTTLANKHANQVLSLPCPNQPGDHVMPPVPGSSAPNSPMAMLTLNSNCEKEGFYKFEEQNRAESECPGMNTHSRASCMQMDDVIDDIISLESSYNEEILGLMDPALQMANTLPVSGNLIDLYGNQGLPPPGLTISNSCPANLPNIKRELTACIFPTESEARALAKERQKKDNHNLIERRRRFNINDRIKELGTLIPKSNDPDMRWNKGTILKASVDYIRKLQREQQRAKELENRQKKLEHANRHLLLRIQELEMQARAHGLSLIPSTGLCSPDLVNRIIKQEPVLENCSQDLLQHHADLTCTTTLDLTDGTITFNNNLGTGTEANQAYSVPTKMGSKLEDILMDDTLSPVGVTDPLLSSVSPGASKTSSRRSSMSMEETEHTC
# [15] = Shn3 3'UTR reporter inhibitors, dose response, cell-based, Clone20 osteoblasts, firefly luciferase, cherry-picked (AID 624132); type: functional;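 note: firefly luciferase luminescence from reporter carrying the Shn3 3'UTR in osteoblasts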
# Interleukin-8 [16] = target: T6, Interleukin-8 (Homo sapiens, UniProt P10145); experiment: Dose Response confirmation of uHTS small molecule hits for cystic fibrosis induced NFkb Inhibitors in a PAF-induced IL8 counterscreen.; type: functional; settings: read-out: IC50_Mean
# T6 sequence (P10145 whole entry): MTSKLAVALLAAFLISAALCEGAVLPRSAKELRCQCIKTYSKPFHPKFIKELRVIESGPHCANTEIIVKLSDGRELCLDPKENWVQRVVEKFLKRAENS
# [17] = HEK293 cell cytotoxicity, dose response, cytotoxicity control, plate reader, cherry-picked samples (AID 743446); type: functional, cell-based
# Paired box protein Pax-8 = Paired box protein Pax-8 (Homo sapiens, UniProt Q06710); experiment: inhibitors of PAX8-driven TPO luciferase reporter, dose response, RMG-I cells, cherry-pick (AID 687027); type: functional, cell-based;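 note: luciferase reporter driven by Pax8 target thyroperoxidase promoter measured by SteadyGlo luminescence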
# Chain of Paired box protein Pax-8 (Q06710 whole entry): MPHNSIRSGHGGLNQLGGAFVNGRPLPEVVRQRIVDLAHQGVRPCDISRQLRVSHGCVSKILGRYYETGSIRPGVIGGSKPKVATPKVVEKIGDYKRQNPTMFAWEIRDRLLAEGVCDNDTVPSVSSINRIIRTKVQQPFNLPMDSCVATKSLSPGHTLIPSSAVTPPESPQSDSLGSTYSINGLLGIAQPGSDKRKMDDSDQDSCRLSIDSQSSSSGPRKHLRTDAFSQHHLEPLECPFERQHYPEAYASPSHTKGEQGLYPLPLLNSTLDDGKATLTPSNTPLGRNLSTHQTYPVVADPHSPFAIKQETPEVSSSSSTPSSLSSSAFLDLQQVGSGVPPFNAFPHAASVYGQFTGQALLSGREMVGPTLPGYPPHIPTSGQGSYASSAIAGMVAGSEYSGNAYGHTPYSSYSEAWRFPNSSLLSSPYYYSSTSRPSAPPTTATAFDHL
# Interleukin-8 [18] = target: T6, Interleukin-8; experiment: Dose Response confirmation of uHTS small molecule hits for cystic fibrosis induced NFkb Inhibitors in a TNFa-induced IL8 counterscreen.; type: functional; settings: read-out: IC50_Mean
# [19] = LGR2 antagonists, dose response, cell-based, HEK293, CRE-luciferase reporter, cherry pick, set 2 (AID 743343); type: functional;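 note: transfected cells were stimulated with diluted bursicon conditioned medium after compound addition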
# [20] = A549 cell cytotoxicity, dose response, cytotoxicity control, plate reader, cherry-pick, antagonist series (AID 743412); type: functional, cell-based
# [21] = MC4R antagonists, dose response, counter-screen for LGR2 antagonist project, cell-based, plate reader, cherry pick (AID 743444); type: functional;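 note: transfected HEK 293 cells stimulated with alpha-MSH peptide; potency of inhibitors of the alpha-MSH evoked signal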
# [22] = HepG2 cell cytotoxicity, dose response, cytotoxicity control, plate reader, cherry-pick, antagonist series (AID 743416); type: functional, cell-based
# [23] = target: T7, Heat shock factor protein 1 (Mus musculus, UniProt P38532); experiment: inhibition of MG132-induced HSE-luciferase signal, confirmation, cell-based, NIH3T3, luminescence, dose retest (AID 2382); type: functional;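 note: NIH3T3 fibroblasts with HSF1-driven luciferase reporter stressed by proteasome inhibitor MG132; luminescence from HSF1-driven luciferase expression after 8 hours of MG132 stress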
# T7 sequence (P38532 whole entry): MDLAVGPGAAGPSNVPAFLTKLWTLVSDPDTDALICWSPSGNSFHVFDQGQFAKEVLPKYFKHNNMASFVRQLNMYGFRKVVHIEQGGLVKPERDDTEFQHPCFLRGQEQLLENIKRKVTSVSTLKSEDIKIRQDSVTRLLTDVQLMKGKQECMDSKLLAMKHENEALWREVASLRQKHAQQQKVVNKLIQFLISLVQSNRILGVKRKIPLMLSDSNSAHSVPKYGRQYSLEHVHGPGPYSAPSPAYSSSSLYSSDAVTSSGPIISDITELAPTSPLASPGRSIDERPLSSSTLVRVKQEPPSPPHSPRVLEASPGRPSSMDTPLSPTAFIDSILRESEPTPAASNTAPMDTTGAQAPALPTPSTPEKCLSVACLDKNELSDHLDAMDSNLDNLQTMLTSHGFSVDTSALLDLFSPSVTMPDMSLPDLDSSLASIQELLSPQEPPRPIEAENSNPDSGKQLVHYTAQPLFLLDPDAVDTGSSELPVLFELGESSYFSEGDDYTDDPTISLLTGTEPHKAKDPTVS
# [24] = HepG2 cell cytotoxicity, dose response, cytotoxicity control for Shn3 inhibitor project, CellTiter-Glo, cherry-picked (AID 624134); type: functional, cell-based
# [25] = control 3'UTR Renilla luciferase suppression, dose response, counter-screen for Shn3 inhibitor project, cell-based, Clone20-Shn3RL, cherry-picked (AID 624133); type: functional
structure (smiles),measurement,setting,value
COc1ccc(CNC(=O)CSc2n[nH]c3c4cc(OC)ccc4nc-3n2)cc1,IC50,[1],8.05 µM (active)
same,IC50,[2],76.2 µM (inactive)
same,IC50,[3],71.6 µM (inactive)
same,IC50,[4],83.3 µM (inactive)
Cc1cccc2nc(-c3ccccc3)nc(N[C@@H](CO)c3ccccc3)c12,CC50,[5],19 µM (active)
same,IC50,[6],17 µM (active)
same,EC50,[7],> 112 µM (not active)
same,EC50,[8],> 112 µM (not active)
CCN1CCN(C(=S)c2ccc(OCC(=O)NCc3ccccc3)cc2)CC1,IC50,[9],1.92 µM (active)
same,IC50,[10],3.35 µM (active)
same,IC50,[11],45.3 µM (inactive)
COc1cccc(-c2cc(C(=O)N3CCc4ccccc4C3)no2)c1,IC50,Caspase-3,32 µM (active)
same,IC50,[12],7.7 µM (active)
same,IC50,[13],46 µM (active)
O=C(c1nnsc1S(=O)(=O)c1ccc(Cl)cc1)N1CCOCC1,AC50,[14],9.51 µM (active)
same,AC50,[15],7.74 µM (active)
same,IC50,Interleukin-8 [16],1.25 µM (active)
same,AC50,[17],15.3 µM (active)
same,AC50,Paired box protein Pax-8,6.05 µM (active)
same,IC50,Interleukin-8 [18],1.19 µM (active)
same,AC50,[19],4.76 µM (active)
same,AC50,[20],13.9 µM (active)
same,AC50,[21],5.75 µM (active)
same,AC50,[22],15.3 µM (active)
same,EC50,[23],> 195 µM (not active)
same,AC50,[24],31.7 µM (active)
same,AC50,[25],12.2 µM (active)
